The values below come from patent US20200261388A1, “USE AND METHOD OF L-ASPARTIC ACID beta-HYDROXAMATE IN PREPARING DRUGS FOR INHIBITING CHOROIDAL NEOVASCULARIZATION” (WENZHOU MEDICAL UNIVERSITY, priority 2019, published 2020).

The test system of series [1] is laser-induced choroidal neovascularization. Put plainly: Laser-induced choroidal neovascularization (CNV) mouse model, intravenous L-ABH. The class given is in vivo, C57/B6 mice. The note with it: i.v. 6 mg/kg the day before laser and 3 mg/kg third day after laser; analysed day 7 after laser; p=0.001. As for the experimental part:
(§1) Using animal models of exAMD, in C57/B6 mice, fundus was irradiated with Krypton red laser (interval at 0.05 s, duration of 0.07 s, and power at 240 mW) to make CNV mice models. A serine racemase competitive inhibitor, L-aspartic acid β-hydroxamate (L-ABH), was injected intravenously at a dosage of 6 mg/kg at the day before laser, and at a dosage of 3 mg/kg at the third day after laser. At the seventh day after laser injury, stretched preparation was performed with choroid/retinal pigment epithelial cells (RPEs), which were stained with metaagglutinin GS-IB4 coupled with Alexa Fluor 594, and the volume of CNV was analyzed. And primary RPEs were utilized in vitro to study the inhibition of L-ABH on the production of VEGF and MCP-1 by RPEs which was induced with TNFα. Macrophages were co-cultured with RPEs to study L-ABH about pre-treating RPEs and inhibiting the migration of macrophages.
The results of inhibiting the laser-induced choroidal neovascularization by intravenously injecting L-ABH are shown in FIGS. 1A-1E, wherein FIG. 1A is CNV produced by laser in 2-month-old wild-type mice. Injection of saline was used as the control group (Con, B); at the day before laser, L-ABH was injected intravenously (2 mg/kg), and 1 mg/kg (C) was injected 3 days after laser; or at the day before laser, L-ABH was injected intravenously (6 mg/kg), and 3 mg/kg (D) was injected 3 days after laser. […]

In series [2] the test system is retinal functions (B-wave of rod and cone cells). Put plainly: Electroretinographic analysis of retinal function after intravenous L-ABH. The note with it: 6 mg/kg i.v., one day after injection, vs saline injection group. The class given is in vivo, C57BL/6J male mice. As for the experimental part:
The effect of intravenous injection of L-ABH on retinal functions is shown in FIGS. 2A-2D, in which C57BL/6J male mice were intravenously injected 6 mg/kg of L-ABH at an age of two months, one day after the injection, an electrographic analysis was performed on the retina. The amplitudes of B-wave in dark and bright views are shown in FIG. 2A, FIG. 2C, and FIG. 2B respectively, and the average values of which are analyzed by histograms in FIG. 2D.

In the next series the test system is visual functions. On the set-up: species or system C57BL/6j male mice. The note with it: mouse, in vivo. As to the method:
The effect of intravenous injection of L-ABH on visual functions are shown in FIGS. 3A-3C, in which C57BL/6j male mice were intravenously injected 6 mg/kg of L-ABH at an age of two months, one day after the injection, visual behaviors were analyzed.

A further series has as its system primary RPEs. Put plainly: L-serine and D-serine in supernatants of primary RPE by HPLC. The note with it: L-ABH 0.0625-0.25 mM pre-treatment 1.5 h, then TNFα 500 unit/ml 12 h; supernatant. The class given is cell-based. As to the method:
Primary RPE was cultured in DMEM/F12 plus 20% FBS to a density of 70%, at which it was exchanged for DMEM/F12 plus 1% FBS, L-ABH (0.0625-0.25 mM), or after the control pre-treatment for 1.5 hours, it was exchanged for TNFα (500 unit/ml) to treat for 12 h, the supernatants were collected, and L-serine and D-serine in the supernatants were detected by high performance liquid chromatography. There were six samples in each group. The contents of L-serine and D-serine are shown with box charts in FIG. 4A, with **p<0.01, *p<0.05 showing that there was significant difference of D-serine between the treatment group and the control group. The ratio of L/D-serine was shown in FIG. 4B, with **p<0.01, *p<0.05 showing that there was significant difference between the control groups. In FIG. 4C-FIG. 4E, primary RPEs were co-cultured with macrophages J774A.1, primary RPEs were pretreated with L-ABH (0.125 mM) for 1.5 h, then treated with TNFα (500 unit/ml) for 12 h, with J774A.1 being cultured in the upper layer at the same time for 12 h, after which the supernatants cultured with RPEs were collected, and an enzyme-linked immunosorbent assay was used to detect the productions of MCP-1 (C), VEGF (D), and NO (E). (There were 7 samples for each group). In FIG. 4C, ***p<0.001, compared with the control group, **p<0.01, compared with TNFα treatment group. […]

The test system of series [3] is primary RPEs induced with TNFα. Description: Production of VEGF and MCP-1 by TNFα-induced primary RPE (ELISA, co-culture with J774A.1). The class given is cell-based. The note with it: L-ABH 0.125 mM pre-treatment 1.5 h, then TNFα 500 unit/ml 12 h. As to the method:
as §1
Primary RPE was cultured in DMEM/F12 plus 20% FBS to a density of 70%, at which it was exchanged for DMEM/F12 plus 1% FBS, L-ABH (0.0625-0.25 mM), or after the control pre-treatment for 1.5 hours, it was exchanged for TNFα (500 unit/ml) to treat for 12 h, the supernatants were collected, and L-serine and D-serine in the supernatants were detected by high performance liquid chromatography. There were six samples in each group. […]
For orientation: An ELISA detects its analyte on a solid surface through an enzyme-linked reagent.

A further series has as its system macrophages J774A.1. Put plainly: Migration of macrophages J774A.1 co-cultured with TNFα-treated RPE. The class given is cell-based. The note with it: L-ABH 0.125 mM pre-treatment of RPE 1.5 h, then TNFα 12 h; co-culture 12 h. As to the method: as §1
The results of L-ABH inhibiting the migration of macrophages under the induction of RPE treated with TNFα are shown in FIGS. 5A-5D, in which RPE was co-cultured with macrophages J774A.1 for 12 h. […] For each culture dish, nine visual fields were randomly selected under the light microscope to be counted, with the statistical analysis seen in FIG. 5D. **p<0.01, compared with the control group, # p<0.05, compared with TNFα treatment group.

For `N[C@@H](CC(=O)NO)C(=O)O` [L-ABH, L-aspartic acid β-hydroxamate], in series [1], the “volume of CNV relative to saline control group” value is 55%. Further, in series [2], the “amplitude of B-wave from cone cells in a bright view” value is “no differences” and the “amplitude of B-wave from rod cells in a dark view” value is recorded as “no differences”. Also, in the series on visual functions, the “retention time of mice in the black box” value is given as “no difference”. Moreover, in the series with primary RPEs, the “production of D-serine in primary RPEs” value is “decreased the production of D-serine” and the “ratio of L-serine/D-serine” value is reported as “increased the ratio of L-serine/D-serine”. Moreover, in series [3], the “production of MCP-1 by RPE induced with TNFα” value was “significantly decreasing the production” and the “production of VEGF by RPE induced with TNFα” value is reported as “significantly decreasing the production”. The “macrophage migration mediated with RPE induced with TNFα” value in the series with macrophages J774A.1 is “significantly inhibited macrophage migration”.
